The source of these data is article PMC9898759, “The Saccharomyces cerevisiae Yta7 ATPase hexamer contains a unique bromodomain tier that functions in nucleosome disassembly” (The Journal of Biological Chemistry, 2022).

Assay [1] is described as follows: Malachite Green ATPase assay of Yta7. It is filed as biochemical. The settings on record: Malachite Green phosphate assay, 2 mM ATP, 25 mM Hepes pH 7.6, 2 mM MgCl2, 150 mM KCl, 1 mM DTT, room temperature 1 h, A620; three independent experiments; Fig. S1C. As for the experimental part:
The Malachite Green Phosphate assay kit (Sigma–Aldrich) was used to measure the ATP hydrolysis rate of Yta7 present in different nucleotides. Yta7 was incubated in assay buffer (25 mM Hepes [pH 7.6], 2 mM MgCl2, 150 mM KCl, and 1 mM DTT) with or without histone-3 peptide (1–24 amino acids). Either 2 mM ATP or 2 mM ATPγS or 2 mM ADP (negative control) was added to initiate the reaction at room temperature for 1 h. Absorbance at 620 nm was measured in a Molecular Devices SpectraMax M2e microplate reader.

Another assay deals with Yta7. The assay can be described thus: AlphaScreen binding of biotinylated H3 N-tail peptide (unmodified or acetylated) to full-length Yta7. More on the design: species or system Saccharomyces cerevisiae. Particulars: for binding to Yta7: 50 nM 10xHis-3xFlag-Yta7, 50 nM biotinylated H3 (1–22 amino acid) peptide, 50 mM Mops pH 7.4, 100 mM NaCl, BSA 0.1 mg/ml, on ice 1.5 h. As for the experimental part: (§1) We performed AlphaScreen assays using a 6xHis detection kit (PerkinElmer). The biotinylated unmodified and the all-four-lysine acetylated H3 peptide (1–22 amino acids) were synthesized by GenScript. We individually mixed the purified 50 nM 10xHis-3xFlag-Yta7, 10xHis-3xFlag-Yta7ΔBRD, 10xHis-3xFlag-Yta7ΔBIMΔBRD, 6xHis-MBP-BIM, 6xHis-MBP-BRD, and the complex of 6xHis-MBP-BRD and MBP-BIM with 50 nM biotinylated and unmodified or acetylated H3 (1–22 amino acid) peptides, respectively, and incubated the mixtures on ice for 1.5 h with the streptavidin-coated donor beads (5 μg/ml) and nickel-chelated acceptor beads (5 μg/ml) in 50 mM Mops (pH 7.4), 100 mM NaCl, and bovine serum albumin (0.1 mg/ml). For nucleosome-binding assay, we used 50 nM 10xHis-3xFlag-Yta7 and 100 nM biotinylated human nucleosome. We incubated the mixture for 2 h on ice with the same concentration donor and acceptor beads. The donor beads contain a photosensitizer that converts ambient oxygen into short-lived singlet oxygen upon 680 nm light activation. When the acceptor beads are brought close enough to the donor beads by interaction between His-tagged proteins and biotinylated peptides, singlet oxygen can diffuse from the donor to the acceptor beads to transfer the energy to the thioxene derivatives of the acceptor beads, resulting in light emission at 520 to 620 nm range.
A general note: Alpha assays give light when donor and acceptor beads are brought close together.

For assay [2], the system named is complex of 6xHis-MBP-BRD and MBP-BIM. The assay can be described thus: AlphaScreen binding of H3 peptide to BRD and BIM together. More on the design: species or system Saccharomyces cerevisiae. As for the experimental part: as §1
A further assay relates to Yta7_ΔBIM ΔBRD. The assay can be described thus: AlphaScreen binding of H3 peptide to Yta7 lacking BIM and BRD. The settings on record: 50 nM construct (320–350 and 954–1132 deleted), 50 nM biotinylated H3 (1–22), pH 7.4, on ice 1.5 h, n = 3, Fig. S9B. More on the design: species or system Saccharomyces cerevisiae. As for the experimental part:
as §1

A further assay relates to Yta7_ΔBRD. The experiment in a line: AlphaScreen binding of H3 peptide to Yta7 lacking BRD. Details: species or system Saccharomyces cerevisiae. The settings on record: 50 nM construct (954–1132 deleted), 50 nM biotinylated H3 (1–22), pH 7.4, on ice 1.5 h, n = 3, Fig. S9B. As for the experimental part: as §1
For a further assay, the system named is 6xHis-MBP-BIM. The experiment in a line: AlphaScreen binding of H3 peptide to MBP-fused BIM. More on the design: species or system Saccharomyces cerevisiae. Particulars: n = 3, Fig. S9D. Here is the method: as §1
The mark [3] stands for this setting: AlphaScreen, three independent experiments in triplicate.

With “Yta7: full-length S. cerevisiae Yta7 AAA+ ATPase hexamer, 10xHis and 3xFLAG tagged”, in assay [1], the ATP hydrolysis entry is recorded as “hydrolyzed ATP”.

Regarding “24-residue H3 N-tail: unmodified H3 peptides (1–24 amino acids) (GenScript)”, the “interaction with Yta7 (24-residue H3 N-tail)” value in the assay on Yta7 (24-residue H3 N-tail, Fig. S1, C and D) is on record as “interacted with”.

Regarding “unmodified H3 peptide (1–22 amino acids)”, the “binding signal to BRD–BIM relative to Yta7 hexamer” value in assay [2] (BRD–BIM complex vs full-length Yta7 hexamer) is “an order of magnitude weaker”. Also, the “binding signal to BIM and BRD together relative to BRD alone” value in assay [2] (complex of 6xHis-MBP-BRD and MBP-BIM vs 6xHis-MBP-BRD, 50 nM biotinylated H3 (1–22), pH 7.4, n = 3, Fig. S9D) is “stronger than BRD alone”. Further, the “binding to Yta7” value in the assay with Yta7 (setting [3]) was “bound Yta7”. Also, in the assay with Yta7 (AlphaScreen, 50 nM Yta7, 50 nM biotinylated H3 (1–22) peptides, pH 7.4, on ice 1.5 h, means of three independent experiments performed in triplicate, Fig. 2H), the “binding signal relative to the acetylated version” value is given as “five times stronger”. Moreover, the “affinity / binding in the presence of ADP or ATPγS” value in the assay on Yta7 (AlphaScreen, biotinylated H3 (1-22 aa), in the presence of ADP or ATPγS, three independent experiments in triplicate, Fig. S1E) is “unaffected”. Besides, in the assay on Yta7 (AlphaScreen, unmodified compared with acetylated H3 (1–22) peptide, qualitative, listed as unmodified peptide), the “relative affinity, unmodified vs acetylated H3 peptide” value is on record as “higher affinity”. Also, the “binding to Yta7_ΔBIM ΔBRD” value in the assay on Yta7_ΔBIM ΔBRD is recorded as “neither Yta7_ΔBRD nor Yta7_ΔBIM ΔBRD bind”. Also, the “binding to Yta7_ΔBRD” value in the assay on Yta7_ΔBRD is on record as “neither Yta7_ΔBRD nor Yta7_ΔBIM ΔBRD bind”. In addition, the “binding signal to BIM alone” value in the assay on 6xHis-MBP-BIM (50 nM 6xHis-MBP-BIM, 50 nM biotinylated H3 (1–22), pH 7.4, on ice 1.5 h) is listed as “weak binding signal”. Further, the “binding signal to BIM alone relative to MBP control and BRD alone” value with 6xHis-MBP-BIM (6xHis-MBP negative control, compared with 6xHis-MBP-BRD) is “above the MBP control but weaker than BRD alone”.

As to “acetylated H3 peptide (1–22 amino acids): biotinylated all-four-lysine acetylated H3 peptide (1–22 amino acids), synthesized by GenScript”, the “binding to Yta7” value in the assay with Yta7 (setting [3]) was “bound Yta7”.
